From publication PMC7395068, “The evolution of strategies to minimise the risk of human drug-induced liver injury (DILI) in drug discovery and development” (Archives of Toxicology, 2020)
Read-outs that look alike come from different tables or passages of the source.

Tests used:
[1] = Plasma free fraction (fu) and unbound Cmax (Cmax,u); assay type: in vitro ADME, human; details: unbound plasma Cmax
[2] = cited from earlier work
[3] = system: THLE or HepG2 cells, isolated mitochondria, BSEP; details: cited from earlier work
PHH = details: cited from earlier work
hLiMTs [4] = details: cited from earlier work
[5] = system: HepG2 C3A spheroid, BSEP, Glu/Gal in HepG2 cells, bioactivation; details: cited from earlier work
[6] = plasma free fraction; cited from earlier work
[7] = cited from earlier work; remark: listed apart in the source
[8] = system: HepG2 cells, primary human hepatocytes; details: In vitro Assay; ref Garside 2014; cited from earlier work
[9] = system: isolated mouse liver mitochondria; details: In vitro Assay; ref Porceddu 2012; cited from earlier work
[10] = ref Chen 2011; cited from earlier work
hLiMTs [11] = experiment: Combined HCI (HCS) and cellular ATP 3D assay in hLiMTs; details: for AC50 / minimal effective concentration: Homo sapiens
HepaRG spheroids = experiment: Combined HCI (HCS) and cellular ATP 3D assay in HepaRG spheroids; details: for AC50 / minimal effective concentration: Homo sapiens
[12] = Modeled in vitro assays (cytotoxicity, mitochondrial dysfunction, BSEP), ref Aleo et al. 2019
[13] = In vitro Assay, ref Proctor 2017
[14] = Microtissue model structural based (HCI), combined HCS and ATP, MEC < 25 × Cmax.tot cut-off

Human plasma Cmax,u [1]: 3 nM | hLiMTs <25x Avg Cmax ATP (hLiMTs [11]; hLiMTs, ATP endpoint, cut-off <25x Avg Cmax): +ve | hLiMTs <100x Avg Cmaxu ATP (hLiMTs [11]; hLiMTs, ATP endpoint, cut-off <100x Avg Cmaxu): -ve | hLiMTs <25x Avg Cmax HCS (hLiMTs [11]; hLiMTs, HCS endpoints, cut-off <25x Avg Cmax): +ve | hLiMTs <100x Avg Cmaxu HCS (hLiMTs [11]; hLiMTs, HCS endpoints, cut-off <100x Avg Cmaxu): +ve (<100x Avg Cmaxu) | hLiMTs <25x Avg Cmax All (hLiMTs [11]; hLiMTs, all endpoints (ATP and HCS), cut-off <25x Avg Cmax): +ve | hLiMTs Cmax max All (hLiMTs [11]; hLiMTs, all endpoints, Cmax max used): +ve | hLiMTs Cmax min All (hLiMTs [11]; hLiMTs, all endpoints, Cmax min used): +ve | hLiMTs <10 uM All (hLiMTs [11]; hLiMTs, all endpoints, cut-off <10 uM): +ve (<10 uM) | hLiMTs <100x Avg Cmaxu All (hLiMTs [11]; hLiMTs, all endpoints, cut-off <100x Avg Cmaxu): +ve (<100x Avg Cmaxu) | HepaRG <25x Avg Cmax ATP (HepaRG spheroids; HepaRG, ATP endpoint, cut-off <25x Avg Cmax): +ve | HepaRG <100x Avg Cmaxu ATP (HepaRG spheroids; HepaRG, ATP endpoint, cut-off <100x Avg Cmaxu): -ve | HepaRG <25x Avg Cmax HCS (HepaRG spheroids; HepaRG, HCS endpoints, cut-off <25x Avg Cmax): +ve | HepaRG <100x Avg Cmaxu HCS (HepaRG spheroids; HepaRG, HCS endpoints, cut-off <100x Avg Cmaxu): +ve (<100x Avg Cmaxu) | HepaRG <25x Avg Cmax All (HepaRG spheroids; HepaRG, all endpoints (ATP and HCS), cut-off <25x Avg Cmax): +ve | HepaRG Cmax max All (HepaRG spheroids; HepaRG, all endpoints, Cmax max used): +ve | HepaRG Cmax min All (HepaRG spheroids; HepaRG, all endpoints, Cmax min used): +ve | HepaRG <10 uM All (HepaRG spheroids; HepaRG, all endpoints, cut-off <10 uM): +ve (<10 uM) | HepaRG <100x Avg Cmaxu All (HepaRG spheroids; HepaRG, all endpoints, cut-off <100x Avg Cmaxu): +ve (<100x Avg Cmaxu)
SMILES: CCN(CC)CCNC(=O)c1c(C)[nH]c(/C=C2\C(=O)Nc3ccc(F)cc32)c1C [sunitinib]
DILI severity category (Chen et al. [2016]) ([2]; LTKB DILIrank category, ref Chen et al. 2016): Most | DILI severity category (Chen 2016) ([2]; human DILI classification, LTKB DILIrank, ref Chen et al. 2016): Most | DILI severity category ([2]; human DILI severity, ref Chen et al.): Most | DILI +VE (5-8), DILI -VE (-4) ([2]; ref Chen 2016): +VE | DILI severity category ([2]; ref Chen 2016): vMost-DILI-Concern | Partition Hybrid HRM Score ([3]; In vitro Assay, ref Aleo 2019): -VE | Ro2 Hybrid HRM Score ([3]; In vitro Assay, ref Aleo 2019): -VE | Partition Hybrid HRM Score ≥4, Aleo (2019) [3, 12]: +VE (Partition Hybrid HRM Score ≥4) | Partition Hybrid HRM Score ≥8, Aleo (2019) [3, 12]: -VE | Rule of Two hybrid HRM Score ≥3, Aleo (2019) [3, 12]: -VE | Rule of Two hybrid HRM Score ≥8, Aleo (2019) [3, 12]: -VE | PHH/100xCmax, Proctor (2017) (PHH; 2D PHH, ATP, IC50 < 100 × Cmax.tot, ref Proctor et al. 2017): +VE (IC50 < 100 × Cmax.tot) | PHH/100uM, Proctor (2017) (PHH; 2D PHH, ATP, IC50 threshold 100 µM, ref Proctor et al. 2017): +VE (IC50 threshold of 100 µM) | PHH ATP <100uM (PHH; [13]): +VE (IC50 threshold of 100 µM) | hLiMTs ATP <100uM (hLiMTs [4]; [13]): +VE (IC50 threshold of 100 µM) | hLiMTs/100xCmax, Proctor (2017) (hLiMTs [4]; hLiMTs, ATP, IC50 < 100 × Cmax.tot, ref Proctor et al. 2017): +VE (IC50 < 100 × Cmax.tot) | hLiMTs/100uM, Proctor (2017) (hLiMTs [4]; hLiMTs, ATP, IC50 threshold 100 µM, ref Proctor et al. 2017): +VE (IC50 threshold of 100 µM) | Bayesian Machine Learning DILI prediction, Williams (2019) ([5]; Bayesian modeling, ref Williams et al. 2019): +VE | Bayesian Machine Learning ([5]; In vitro Assay, ref Williams 2019): +VE | fu [6]: 0.050 | Assigned DILI category ([7]; Chen et al. 2016 or literature alignment, ref Chen et al. 2016): 3 | In vivo DILI ([7]; ref Aleo 2019): +VE | In vivo DILI ([7]; ref Garside 2014): +VE | In vivo DILI ([7]; ref Porceddu 2012): +VE | In vivo DILI ([7]; ref Proctor 2017): +VE | In vivo DILI ([7]; ref Williams 2019): +VE | Cluster 1-6 +VE Assay [8]: +VE | in vitro data EC2<=1x Cmax [9]: +VE | in vitro data EC20<=2uM [9]: -VE | DILI Score (FDA) (1-8) [10]: 8 | AC50 (hLiMTs [11]; read-out: ATP endpoint AC50): 400 nM | minimal effective concentration (hLiMTs [11]; read-out: ATP endpoint MEC): 0.347 µM | AC50 (hLiMTs [11]; read-out: HCS endpoint AC50): 421 nM | minimal effective concentration (hLiMTs [11]; read-out: HCS endpoint MEC): 0.157 µM | DILI prediction hLiMTs (HCS-MEC) (hLiMTs [11]; [14]): +VE (MEC < 25 × Cmax.tot cut-off) | AC50 (HepaRG spheroids; HepaRG, read-out: ATP endpoint AC50): 3110 nM | minimal effective concentration (HepaRG spheroids; HepaRG, read-out: ATP endpoint MEC): 1.1 µM | AC50 (HepaRG spheroids; HepaRG, read-out: HCS endpoint AC50): 1710 nM | minimal effective concentration (HepaRG spheroids; HepaRG, read-out: HCS endpoint MEC): 0.281 µM | DILI prediction HepaRG spheroids (HCS-MEC) (HepaRG spheroids; [14]): +VE (MEC < 25 × Cmax.tot cut-off)
